Laboratory results reported in patent publication KR20100108793A, “애기뿔소똥구리로부터 분리된 항진균 활성을 가지는 코프리신 펩타이드 및 그의 용도” (대한민국(농촌진흥청장), priority 2009, dated 2010).
Values after ≈ are worked out from the molar mass of the structure shown. Where no end group is shown, it is not given here.

How the values were obtained:
Format in all cases: cell-based
Trichosporon beigelii = test: Antifungal MIC by MTT assay; details: 28℃, 24 h, MTT readout at 570 nm
Aspergillus flavus = test: Antifungal MIC by MTT assay; details: 28℃, 24 h, MTT readout at 570 nm
Human erythrocytes = test: Cytotoxicity to human erythrocytes (hemolysis); details: for % human erythrocyte hemolysis: 37℃, 90 min, 0.1% Triton X-100 = 100 %; for Cytotoxicity to human erythrocytes (in words): summary of Table 3
Aspergillus fumigatus = test: Antifungal MIC by MTT assay; details: 28℃, 24 h, MTT readout at 570 nm
Candida parapsilosis = test: Antifungal MIC by MTT assay; details: 28℃, 24 h, MTT readout at 570 nm
Trichophyton rubrum = test: Antifungal MIC by MTT assay; details: 28℃, 24 h, MTT readout at 570 nm
Candida albicans [1] = test: Mechanism of antifungal activity (time-kill, CFU count; cidal or static); details: plated over time on YPD agar, 28℃, 24 h, CFU count (Fig. 2)
[2] = system: Candida albicans (TIMM 1768); test: Antifungal MIC by MTT assay; details: strain TIMM 1768; 28℃, 24 h, MTT readout at 570 nm
Malassezia furfur = test: Antifungal MIC by MTT assay; details: 28℃, 24 h, MTT readout at 570 nm
[3] = system: Candida albicans (ATCC 90028); test: Antifungal MIC by MTT assay; details: strain ATCC 90028; 28℃, 24 h, MTT readout at 570 nm
Aspergillus parasticus = test: Antifungal MIC by MTT assay; details: 28℃, 24 h, MTT readout at 570 nm
Candida albicans [4] = test: Activity on dimorphism (FBS-induced hyphae) of pathogenic fungus, microscopy; details: hyphae induced with 20% FBS; 37℃, 24 h; microscopy (Fig. 1)

Row | Molecule | MIC (Trichosporon beigelii) [µM] | MIC (Aspergillus flavus) [µM] | % human erythrocyte hemolysis (Human erythrocytes; peptide 3.13 μM) [%] | % human erythrocyte hemolysis (Human erythrocytes; peptide 6.25 μM) [%] | % human erythrocyte hemolysis (Human erythrocytes; peptide 12.5 μM) [%] | % human erythrocyte hemolysis (Human erythrocytes; peptide 25 μM) [%] | % human erythrocyte hemolysis (Human erythrocytes; peptide 50 μM) [%] | % human erythrocyte hemolysis (Human erythrocytes; peptide 100 μM) [%] | Cytotoxicity to human erythrocytes (in words) (Human erythrocytes) | MIC (Aspergillus fumigatus) [µM] | MIC (Candida parapsilosis) [µM] | MIC (Trichophyton rubrum) [µM] | Mode of antifungal action, cidal or static (in words) (Candida albicans [1]) | MIC [2] [µM] | MIC (Malassezia furfur) [µM] | MIC [3] [µM] | MIC (Aspergillus parasticus) [µM] | Effect on hyphae of Candida albicans (in words) (Candida albicans [4])
1 | CC[C@H](C)[C@H](NC(=O)CN)C(=O)NCC(=O)N[C@@H](C)C(=O)N[C@H](C(=O)N[C@@H](CC(C)C)C(=O)N[C@@H](CCCCN)C(=O)N[C@H](C(=O)N[C@@H](CC(C)C)C(=O)N[C@H](C(=O)N[C@H](C(=O)NCC(=O)N[C@@H](CC(C)C)C(=O)N1CCC[C@H]1C(=O)N[C@@H](C)C(=O)N[C@@H](CC(C)C)C(=O)N[C@H](C(=O)N[C@@H](CO)C(=O)N[C@@H](Cc1c[nH]c2ccccc12)C(=O)N[C@H](C(=O)N[C@@H](CCCCN)C(=O)N[C@@H](CCCNC(=N)N)C(=O)N[C@@H](CCCCN)C(=O)N[C@@H](CCCNC(=N)N)C(=O)N[C@@H](CCC(N)=O)C(=O)N[C@@H](CCC(N)=O)C(N)=O)[C@@H](C)CC)[C@@H](C)CC)[C@@H](C)O)[C@@H](C)O)C(C)C)C(C)C [멜리틴, reference compound] | 2.5 (≈ 7.12 µg/mL) | 2.5 (≈ 7.12 µg/mL) | 98 | 98 | 100 | 100 | 100 | 100 | 낮은 농도에서도 세포 독성이 매우 높게 나타냄 | 2.5 (≈ 7.12 µg/mL) | 5 (≈ 14.2 µg/mL) | 5 (≈ 14.2 µg/mL) | 효과적으로 사멸(cidal) | 2.5 (≈ 7.12 µg/mL) | 1.25 (≈ 3.56 µg/mL) | 5 (≈ 14.2 µg/mL) | 5 (≈ 14.2 µg/mL) | 
2 | VTCDVLSFEAKGIAVNHSACALHCIALRKKGGSCQNGVCVCRN (cysteines drawn unpaired) [코프리신] | 10 | 10 | 0 | 0 | 0 | 0 | 0 | 0 | 고농도에서도 전혀 세포 독성을 나타내지 않음 | 5 | 10 | 20 | 효과적으로 사멸(cidal) | 5 to 10 | 5 | 10 | 10 | hyphae를 효과적으로 aggregation시킴
